These are literature values, as cited in US20110256218A1, “CONTROLLED RELEASE COMPOSITIONS COMPRISING MECLIZINE OR RELATED PIPERAZINE DERIVATIVES” (EURAND, INC., priority 2010, published 2011).

SMILES strings stand for the structures. Counter-ions that a name gives are not always drawn.

For series [1] the following is noted: in humans.
The conditions of series [2]: in vivo.
For series [3] the following is noted: patients taking meclizine.
The conditions of series [4]: weakly basic chemical entity.

As for `Cc1cccc(CN2CCN(C(c3ccccc3)c3ccc(Cl)cc3)CC2)c1` (centres unmarked) [meclizine], in series [1], the plasma half-life entry is listed as “about 6 hours”. For the same compound, in series [2], the “effects lasting (duration of action)” value was 8 to 24 h and the onset of action result is listed as “about 1 hour”. For the same compound, the “sedation reported (common side effect)” value in series [3] is listed as 20%-30%.
Take `Cc1cccc(CN2CCN(C(c3ccccc3)c3ccc(Cl)cc3)CC2)c1` (stereo not drawn) [Meclizine 2HCl.H2O, 1-(p-chloro-α-phenylbenzyl)-4-(m-methylbenzyl)piperazine dihydrochloride monohydrate]: in series [4], the pKa is listed as 6.2.

The term pKa denotes the pH at which an ionisable group is half protonated.
